Data: US20140163023A1, “DIHYDROPYRROLO PYRIMIDINE DERIVATIVES AS MTOR INHIBITORS” (Cellzome Limited, priority 2011, published 2014)
Where a name gives a salt, the structure may show the parent alone.

How the values were obtained:
PI3Kα = molecular target: T1, PI3Kα (Homo sapiens, UniProt P42336); assay: kinobeads assay, PI3Kα; assay type: binding; details: 1:1 mix of Jurkat and Ramos cell lysates, read-out: Inhibition values (IC50 in μM) as determined in the kinobeads assay, PI3Kα
T1 construct: endogenous in cells; host or cells: Jurkat (ATCC TIB-152, clone E6-1) and Ramos (ATCC CRL-1596), 1:1 lysate mix
In short: (§1)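 Competition binding in 1:1 Jurkat/Ramos cell lysate (5 mg/ml protein) with test compound and a 1:1 mix of phenylthiazole- and phenylmorpholin-chromen-ligand beads, 2 h in cold room with shaking. Bead-bound kinases were eluted, quantified by antibody dot blot with infrared detection, and IC50 derived from dose-response curves.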

PI3Kδ = molecular target: T2, PI3Kδ (Homo sapiens, UniProt O00329); assay: kinobeads assay, PI3Kδ; assay type: binding; details: 1:1 mix of Jurkat and Ramos cell lysates, read-out: Inhibition values (IC50 in μM) as determined in the kinobeads assay, PI3Kδ
T2 construct: endogenous in cells; host or cells: Jurkat (ATCC TIB-152, clone E6-1) and Ramos (ATCC CRL-1596), 1:1 lysate mix
In short: as §1

mTOR = molecular target: T3, mTOR (Homo sapiens, UniProt P42345); assay: mTOR kinobeads assay (competition binding in cell lysate, dot blot detection); details: 1:1 mix of Jurkat and Ramos cell lysates, read-out: Inhibition values (IC50 in μM) as determined in the kinobeads assay, mTor
T3 construct: endogenous in cells; host or cells: Jurkat (ATCC TIB-152, clone E6-1) and Ramos (ATCC CRL-1596), 1:1 lysate mix
In short: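 Competition binding in a 1:1 mix of Jurkat and Ramos cell lysates at 5 mg/ml total protein, with compounds in a 1:3 dilution series and an affinity matrix of two immobilized ligands, 2 h in the cold with shaking. mTOR captured on the beads was eluted and quantified by antibody dot blot with infrared detection. IC50 came from dose-response curves.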

[1] = molecular target: T4, DNA-dependent protein kinase (DNA-PK) (Homo sapiens, UniProt P78527); assay: kinobeads assay, DNA-PK; assay type: binding; details: 1:1 mix of Jurkat and Ramos cell lysates, read-out: Inhibition values (IC50 in μM) as determined in the kinobeads assay, DNA-PK
T4 construct: endogenous in cells; host or cells: Jurkat (ATCC TIB-152, clone E6-1) and Ramos (ATCC CRL-1596), 1:1 lysate mix
In short: as §1

PI3Kβ = molecular target: T5, PI3Kβ (Homo sapiens, UniProt P42338); assay: kinobeads assay, PI3Kβ; assay type: binding; details: 1:1 mix of Jurkat and Ramos cell lysates, read-out: Inhibition values (IC50 in μM) as determined in the kinobeads assay, PI3Kβ
T5 construct: endogenous in cells; host or cells: Jurkat (ATCC TIB-152, clone E6-1) and Ramos (ATCC CRL-1596), 1:1 lysate mix
In short: as §1

PI3Kγ = molecular target: T6, PI3Kγ (Homo sapiens, UniProt P48736); assay: kinobeads assay, PI3Kγ; assay type: binding; details: 1:1 mix of Jurkat and Ramos cell lysates, read-out: Inhibition values (IC50 in μM) as determined in the kinobeads assay, PI3Kγ
T6 construct: endogenous in cells; host or cells: Jurkat (ATCC TIB-152, clone E6-1) and Ramos (ATCC CRL-1596), 1:1 lysate mix
In short: as §1

T1 sequence (P42336 whole entry): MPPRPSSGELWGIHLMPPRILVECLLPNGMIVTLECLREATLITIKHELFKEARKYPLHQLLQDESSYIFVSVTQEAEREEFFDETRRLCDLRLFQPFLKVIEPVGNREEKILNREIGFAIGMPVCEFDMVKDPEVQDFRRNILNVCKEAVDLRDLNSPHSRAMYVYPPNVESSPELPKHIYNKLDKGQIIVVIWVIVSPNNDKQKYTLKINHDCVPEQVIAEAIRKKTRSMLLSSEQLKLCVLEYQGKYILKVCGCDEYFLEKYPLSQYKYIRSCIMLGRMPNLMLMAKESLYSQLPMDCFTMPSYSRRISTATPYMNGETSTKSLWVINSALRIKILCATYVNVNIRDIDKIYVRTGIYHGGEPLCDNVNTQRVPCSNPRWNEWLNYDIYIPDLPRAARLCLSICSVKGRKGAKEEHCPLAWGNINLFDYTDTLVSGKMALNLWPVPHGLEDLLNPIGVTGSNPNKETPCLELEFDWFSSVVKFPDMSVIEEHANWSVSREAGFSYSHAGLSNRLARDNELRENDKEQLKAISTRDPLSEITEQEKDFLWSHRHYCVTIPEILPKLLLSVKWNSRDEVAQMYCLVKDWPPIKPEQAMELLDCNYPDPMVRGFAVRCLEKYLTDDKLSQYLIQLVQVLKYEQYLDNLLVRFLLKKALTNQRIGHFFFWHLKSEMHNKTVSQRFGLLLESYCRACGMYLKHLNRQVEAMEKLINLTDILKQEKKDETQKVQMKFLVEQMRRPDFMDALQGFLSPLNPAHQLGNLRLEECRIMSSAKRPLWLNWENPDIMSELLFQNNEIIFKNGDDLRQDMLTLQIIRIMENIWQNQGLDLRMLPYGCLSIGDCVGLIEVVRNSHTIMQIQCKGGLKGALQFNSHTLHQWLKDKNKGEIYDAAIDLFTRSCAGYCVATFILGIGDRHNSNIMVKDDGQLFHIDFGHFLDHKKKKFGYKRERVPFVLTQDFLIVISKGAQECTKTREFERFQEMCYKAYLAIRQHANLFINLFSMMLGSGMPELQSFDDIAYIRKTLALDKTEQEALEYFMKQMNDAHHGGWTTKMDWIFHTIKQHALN
T1 sequence (P27986 whole entry partner): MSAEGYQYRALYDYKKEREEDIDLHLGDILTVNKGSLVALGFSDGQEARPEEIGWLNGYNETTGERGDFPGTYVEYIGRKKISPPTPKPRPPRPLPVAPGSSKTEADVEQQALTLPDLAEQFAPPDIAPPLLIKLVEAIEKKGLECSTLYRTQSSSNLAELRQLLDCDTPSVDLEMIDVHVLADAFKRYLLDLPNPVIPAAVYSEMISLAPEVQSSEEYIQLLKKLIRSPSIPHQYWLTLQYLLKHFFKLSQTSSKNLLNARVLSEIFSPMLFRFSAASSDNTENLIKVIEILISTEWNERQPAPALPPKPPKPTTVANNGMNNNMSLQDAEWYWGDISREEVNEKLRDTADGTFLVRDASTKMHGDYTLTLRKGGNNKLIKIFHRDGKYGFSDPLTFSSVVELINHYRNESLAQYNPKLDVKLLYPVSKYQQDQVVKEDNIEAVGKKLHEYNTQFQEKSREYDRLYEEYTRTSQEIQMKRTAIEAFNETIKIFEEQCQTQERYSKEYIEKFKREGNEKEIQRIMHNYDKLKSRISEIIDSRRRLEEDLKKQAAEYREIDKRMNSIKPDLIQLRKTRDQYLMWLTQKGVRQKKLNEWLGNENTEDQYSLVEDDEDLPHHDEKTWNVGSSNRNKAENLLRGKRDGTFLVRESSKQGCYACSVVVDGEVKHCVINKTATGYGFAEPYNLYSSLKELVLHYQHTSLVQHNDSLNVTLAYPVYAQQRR
T5 sequence (P42338 whole entry): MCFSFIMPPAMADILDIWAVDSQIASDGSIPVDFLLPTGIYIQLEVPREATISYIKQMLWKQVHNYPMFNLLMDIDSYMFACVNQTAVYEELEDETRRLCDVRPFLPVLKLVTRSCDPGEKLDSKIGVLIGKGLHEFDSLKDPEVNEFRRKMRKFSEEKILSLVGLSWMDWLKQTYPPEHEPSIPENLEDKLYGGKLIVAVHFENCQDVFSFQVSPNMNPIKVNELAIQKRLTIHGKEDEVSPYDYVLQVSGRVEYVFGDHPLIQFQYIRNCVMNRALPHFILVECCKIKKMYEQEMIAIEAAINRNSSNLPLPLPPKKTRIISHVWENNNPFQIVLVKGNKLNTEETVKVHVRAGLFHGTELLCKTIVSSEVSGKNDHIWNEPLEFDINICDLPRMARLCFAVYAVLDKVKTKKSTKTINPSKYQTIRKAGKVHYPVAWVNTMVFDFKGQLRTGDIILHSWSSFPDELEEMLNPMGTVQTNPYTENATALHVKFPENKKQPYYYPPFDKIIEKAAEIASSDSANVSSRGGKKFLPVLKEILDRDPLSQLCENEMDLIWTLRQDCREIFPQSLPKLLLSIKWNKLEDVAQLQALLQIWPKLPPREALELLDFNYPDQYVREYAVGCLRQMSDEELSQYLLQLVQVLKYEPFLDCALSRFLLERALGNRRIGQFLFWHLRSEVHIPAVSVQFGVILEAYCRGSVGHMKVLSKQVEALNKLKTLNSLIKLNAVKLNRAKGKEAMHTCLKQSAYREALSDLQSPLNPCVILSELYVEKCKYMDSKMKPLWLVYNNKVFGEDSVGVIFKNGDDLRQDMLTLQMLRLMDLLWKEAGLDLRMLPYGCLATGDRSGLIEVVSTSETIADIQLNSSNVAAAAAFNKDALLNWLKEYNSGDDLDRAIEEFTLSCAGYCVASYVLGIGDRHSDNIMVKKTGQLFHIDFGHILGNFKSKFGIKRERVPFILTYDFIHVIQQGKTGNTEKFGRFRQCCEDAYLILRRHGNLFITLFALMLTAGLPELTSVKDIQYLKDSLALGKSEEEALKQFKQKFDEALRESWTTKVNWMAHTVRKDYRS
T5 sequence (P27986 whole entry partner): as the sequence (P27986 whole entry partner) above
T2 sequence (O00329 whole entry): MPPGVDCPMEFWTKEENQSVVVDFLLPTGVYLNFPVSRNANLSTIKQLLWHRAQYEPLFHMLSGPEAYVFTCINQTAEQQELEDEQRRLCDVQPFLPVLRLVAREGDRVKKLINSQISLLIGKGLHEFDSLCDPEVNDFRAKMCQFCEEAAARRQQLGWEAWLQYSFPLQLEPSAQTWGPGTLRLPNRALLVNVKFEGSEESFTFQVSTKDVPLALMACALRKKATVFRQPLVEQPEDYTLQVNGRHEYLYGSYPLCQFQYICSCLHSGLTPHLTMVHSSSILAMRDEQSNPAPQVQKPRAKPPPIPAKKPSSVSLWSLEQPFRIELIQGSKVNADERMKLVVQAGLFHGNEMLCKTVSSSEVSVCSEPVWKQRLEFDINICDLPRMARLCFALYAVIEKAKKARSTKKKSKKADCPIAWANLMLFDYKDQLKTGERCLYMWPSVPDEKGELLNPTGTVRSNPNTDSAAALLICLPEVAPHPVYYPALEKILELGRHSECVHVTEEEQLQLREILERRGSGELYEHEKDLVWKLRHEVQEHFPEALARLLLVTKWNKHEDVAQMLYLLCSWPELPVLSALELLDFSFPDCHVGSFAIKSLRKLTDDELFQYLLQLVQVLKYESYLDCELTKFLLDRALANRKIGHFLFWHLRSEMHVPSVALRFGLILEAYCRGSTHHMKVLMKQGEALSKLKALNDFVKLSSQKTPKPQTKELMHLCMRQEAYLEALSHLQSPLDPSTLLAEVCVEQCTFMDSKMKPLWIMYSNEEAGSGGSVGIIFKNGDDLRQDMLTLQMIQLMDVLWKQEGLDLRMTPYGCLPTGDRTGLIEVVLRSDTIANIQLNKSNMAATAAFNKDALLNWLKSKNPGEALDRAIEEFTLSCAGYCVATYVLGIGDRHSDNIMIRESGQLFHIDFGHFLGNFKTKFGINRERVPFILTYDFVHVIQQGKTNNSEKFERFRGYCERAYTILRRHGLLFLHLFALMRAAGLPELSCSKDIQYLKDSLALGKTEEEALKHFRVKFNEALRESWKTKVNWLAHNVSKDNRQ
T2 sequence (P27986 whole entry partner): as the sequence (P27986 whole entry partner) above
T6 sequence (P48736 whole entry): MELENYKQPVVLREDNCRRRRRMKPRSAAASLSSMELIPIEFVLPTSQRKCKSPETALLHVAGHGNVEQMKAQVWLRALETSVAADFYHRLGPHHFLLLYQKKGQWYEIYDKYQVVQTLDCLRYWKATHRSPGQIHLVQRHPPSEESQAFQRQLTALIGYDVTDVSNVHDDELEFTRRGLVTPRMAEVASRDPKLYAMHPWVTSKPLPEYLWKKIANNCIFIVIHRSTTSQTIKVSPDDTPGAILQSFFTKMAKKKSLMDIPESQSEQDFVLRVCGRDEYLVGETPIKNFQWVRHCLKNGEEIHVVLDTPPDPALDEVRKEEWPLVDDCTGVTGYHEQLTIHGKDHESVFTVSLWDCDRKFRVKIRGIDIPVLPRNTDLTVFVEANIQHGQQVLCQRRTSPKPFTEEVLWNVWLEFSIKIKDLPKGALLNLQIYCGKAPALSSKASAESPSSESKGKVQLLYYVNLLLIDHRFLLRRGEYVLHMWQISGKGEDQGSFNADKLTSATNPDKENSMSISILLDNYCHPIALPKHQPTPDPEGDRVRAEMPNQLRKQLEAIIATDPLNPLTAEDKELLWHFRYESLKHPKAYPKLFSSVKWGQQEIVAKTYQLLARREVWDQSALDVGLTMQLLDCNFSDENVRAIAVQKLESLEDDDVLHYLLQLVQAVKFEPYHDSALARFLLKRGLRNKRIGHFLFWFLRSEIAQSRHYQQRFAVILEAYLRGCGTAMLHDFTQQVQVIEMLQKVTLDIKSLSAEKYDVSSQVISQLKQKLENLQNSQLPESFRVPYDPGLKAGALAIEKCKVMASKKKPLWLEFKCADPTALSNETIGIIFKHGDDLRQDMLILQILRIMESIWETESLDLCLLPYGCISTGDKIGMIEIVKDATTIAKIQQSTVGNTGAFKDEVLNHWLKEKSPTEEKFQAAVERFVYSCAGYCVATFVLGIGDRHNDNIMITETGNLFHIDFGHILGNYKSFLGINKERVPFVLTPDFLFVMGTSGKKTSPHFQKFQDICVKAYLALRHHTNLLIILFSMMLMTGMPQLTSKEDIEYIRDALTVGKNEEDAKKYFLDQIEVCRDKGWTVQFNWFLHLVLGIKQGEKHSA

Structure (SMILES) | IC50 (PI3Kα) | IC50 (PI3Kδ) | IC50 (mTOR) | IC50 [1] | IC50 (PI3Kβ) | IC50 (PI3Kγ)
C[C@H]1COCCN1c1nc2c(c(-c3ccc(NC(=O)NC4CC4)cc3)n1)CN(C(=O)C1CCCN1)C2 (stereo partly drawn) [Example 41, 1-cyclopropyl-3-(4-(2-((S)-3-methylmorpholino)-6-(pyrrolidine-2-carbonyl)-6,7-dihydro-5H-pyrrolo[3,4-d]pyrimidin-4-yl)phenyl)urea hydrochloride] | 10 to 100 µM | 10 to 100 µM | 1 to 10 µM | > 100 µM | 10 to 100 µM | 10 to 100 µM
C[C@H]1COCCN1c1nc2c(c(-c3ccc(NC(=O)NC4CC4)cc3)n1)CN(C(N)=O)C2 [Example 42, (S)-4-(4-(3-cyclopropylureido)phenyl)-2-(3-methylmorpholino)-5H-pyrrolo[3,4-d]pyrimidine-6(7H)-carboxamide 2,2,2-trifluoroacetate] | 10 to 100 µM | 10 to 100 µM | 0.1 to 1 µM | > 100 µM | 10 to 100 µM | > 100 µM
O=C(NCCO)Nc1ccc(-c2nc(N3CC4CCC(C3)O4)nc3c2CNC3)cc1 [Example 43, 1-(4-(2-(8-oxa-3-azabicyclo[3.2.1]octan-3-yl)-6,7-dihydro-5H-pyrrolo[3,4-d]pyrimidin-4-yl)phenyl)-3-(2-hydroxyethyl)urea hydrochloride] | > 100 µM | > 100 µM | ≤ 0.1 µM | 1 to 10 µM | > 100 µM | > 100 µM
CCNC(=O)Nc1ccc(-c2nc(N3CC4CCC(C3)O4)nc3c2CNC3)cc1 [Example 44, 1-(4-(2-(8-oxa-3-azabicyclo[3.2.1]octan-3-yl)-6,7-dihydro-5H-pyrrolo[3,4-d]pyrimidin-4-yl)phenyl)-3-ethylurea hydrochloride] | > 100 µM | 10 to 100 µM | 0.1 to 1 µM | 10 to 100 µM | 10 to 100 µM | > 100 µM
CC(O)CNC(=O)Nc1ccc(-c2nc(N3CCOC[C@@H]3C)nc3c2CN(C(C)C)C3)cc1 (stereo partly drawn) [Example 45, 1-(2-hydroxypropyl)-3-(4-(6-isopropyl-2-((S)-3-methylmorpholino)-6,7-dihydro-5H-pyrrolo[3,4-d]pyrimidin-4-yl)phenyl)urea] | 10 to 100 µM | > 100 µM | 1 to 10 µM | > 100 µM | > 100 µM | > 100 µM
CCNC(=O)Nc1ccc(-c2nc(N3CCOC[C@@H]3C)nc3c2CN(C(C)C)C3)cc1 [Example 46, (S)-1-ethyl-3-(4-(6-isopropyl-2-(3-methylmorpholino)-6,7-dihydro-5H-pyrrolo[3,4-d]pyrimidin-4-yl)phenyl)urea 2,2,2-trifluoroacetate] | > 100 µM | > 100 µM | 1 to 10 µM | > 100 µM | > 100 µM | > 100 µM
C[C@H]1COCCN1c1nc2c(c(-c3ccc(NC(=O)NC4CC4)cc3)n1)CN(C(=O)CN1CCOCC1)C2 [Example 47, (S)-1-cyclopropyl-3-(4-(2-(3-methylmorpholino)-6-(2-morpholinoacetyl)-6,7-dihydro-5H-pyrrolo[3,4-d]pyrimidin-4-yl)phenyl)urea 2,2,2-trifluoroacetate] | > 100 µM | > 100 µM | 1 to 10 µM | > 100 µM | 10 to 100 µM | > 100 µM
CC(C)CN1Cc2nc(N3CC4CCC(C3)O4)nc(-c3ccc(NC(=O)NCCO)cc3)c2C1 [Example 48, 1-(4-(2-(8-oxa-3-azabicyclo[3.2.1]octan-3-yl)-6-isobutyl-6,7-dihydro-5H-pyrrolo[3,4-d]pyrimidin-4-yl)phenyl)-3-(2-hydroxyethyl)urea 2,2,2-trifluoroacetate] | > 100 µM | > 100 µM | 1 to 10 µM | > 100 µM | > 100 µM | > 100 µM
CCNC(=O)Nc1ccc(-c2nc(N3CC4CCC(C3)O4)nc3c2CN(C(C)C)C3)cc1 [Example 49, 1-(4-(2-(8-oxa-3-azabicyclo[3.2.1]octan-3-yl)-6-isopropyl-6,7-dihydro-5H-pyrrolo[3,4-d]pyrimidin-4-yl)phenyl)-3-ethylurea 2,2,2-trifluoroacetate] | > 100 µM | > 100 µM | 1 to 10 µM | > 100 µM | > 100 µM | > 100 µM
CS(=O)(=O)N1Cc2nc(N3CC4CCC(C3)O4)nc(-c3ccc(NC(=O)NC4CC4)cc3)c2C1 [Example 50, 1-(4-(2-(8-oxa-3-azabicyclo[3.2.1]octan-3-yl)-6-(methylsulfonyl)-6,7-dihydro-5H-pyrrolo[3,4-d]pyrimidin-4-yl)phenyl)-3-cyclopropylurea] | > 100 µM | > 100 µM | 1 to 10 µM | > 100 µM | > 100 µM | > 100 µM
CC(CO)NC(=O)Nc1ccc(-c2nc(N3CCOC[C@@H]3C)nc3c2CN(C(C)C)C3)cc1 (stereo partly drawn) [Example 51, 1-(1-hydroxypropan-2-yl)-3-(4-(6-isopropyl-2-((S)-3-methylmorpholino)-6,7-dihydro-5H-pyrrolo[3,4-d]pyrimidin-4-yl)phenyl)urea 2,2,2-trifluoroacetate] | > 100 µM | > 100 µM | 1 to 10 µM | > 100 µM | > 100 µM | > 100 µM
CC(C)N1Cc2nc(N3CCOC[C@@H]3C)nc(-c3ccc(NC(=O)NCCC#N)cc3)c2C1 [Example 52, (S)-1-(2-cyanoethyl)-3-(4-(6-isopropyl-2-(3-methylmorpholino)-6,7-dihydro-5H-pyrrolo[3,4-d]pyrimidin-4-yl)phenyl)urea 2,2,2-trifluoroacetate] | > 100 µM | > 100 µM | 1 to 10 µM | > 100 µM | > 100 µM | > 100 µM
